Assay results published in US20250101041A1, “POSITIVE ALLOSTERIC MODULATORS OF THE MUSCARINIC ACETYLCHOLINE RECEPTOR M4” (Vanderbilt University, priority 2022, published 2025).

Molecular target: T1, human mAChR M4 (Homo sapiens, UniProt P08173)
T1 construct: expressed in transfected cells; host or cells: CHO-K1 (American Type Culture Collection), stably expressing hM4 and Gqi5
T1 sequence (P08173 1-479): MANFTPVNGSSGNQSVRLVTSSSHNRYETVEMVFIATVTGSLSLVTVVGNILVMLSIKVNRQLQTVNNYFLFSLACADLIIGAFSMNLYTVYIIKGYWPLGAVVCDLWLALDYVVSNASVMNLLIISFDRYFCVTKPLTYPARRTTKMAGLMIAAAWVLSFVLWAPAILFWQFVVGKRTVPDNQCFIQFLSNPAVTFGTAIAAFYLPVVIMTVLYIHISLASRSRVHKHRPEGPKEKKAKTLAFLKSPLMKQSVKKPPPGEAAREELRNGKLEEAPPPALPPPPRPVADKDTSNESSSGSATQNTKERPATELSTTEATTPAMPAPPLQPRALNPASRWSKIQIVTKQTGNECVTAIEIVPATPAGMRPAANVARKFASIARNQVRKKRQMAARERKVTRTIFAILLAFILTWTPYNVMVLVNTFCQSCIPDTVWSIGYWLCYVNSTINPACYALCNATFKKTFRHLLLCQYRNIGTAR
Test: mAChR M4 cell-based functional assay: calcium mobilization (Fluo-4, FDSS), potentiation of EC20 acetylcholine response in hM4-Gqi5 CHO-K1 cells
Conditions: human M4; for Emax at 30 µM: CHO-K1, % ACh maximum at 30 μM; for EC50: potentiation of EC20 acetylcholine response, calcium mobilization
How it was run: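 Readout is the fluorescence-ratio rise at 1 Hz on FDSS, with PAM activity taken as concentration-dependent enhancement of the EC20 acetylcholine response, fitted four-parameter for EC50/Emax. hM4-Gqi5 CHO-K1 cells carried Fluo-4 AM dye; test compounds (11 points, 1:3) preceded EC20 acetylcholine additions at 144 s and 230 s.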

Row | Compound | Emax at 30 µM [%] | EC50 [µM]
1 | Cc1cc(=O)n2nc(N3CCc4ncc(-c5ccccc5C)cc4C3)c(C)cc2n1 [Compound 1-237, 2,8-dimethyl-7-(3-(o-tolyl)-7,8-dihydro-1,6-naphthyridin-6(5H)-yl)-4H-pyrimido[1,2-b] pyridazin-4-one] | 100 | 0.365
2 | Cc1cc(=O)n2nc(N3CCc4ncc(-c5cc(F)ncc5C)cc4C3)c(C)cc2n1 [Compound 1-238, 7-(3-(2-fluoro-5-methylpyridin-4-yl)-7,8-dihydro-1,6-naphthyridin-6(5H)-yl)-2,8-dimethyl-4H-pyrimido[1,2-b]pyridazin-4-one] | 92 | 0.711
3 | Cc1cc(-c2cnc3c(c2)CN(c2nn4c(=O)cc(C)nc4cc2C)CC3)ccn1 [Compound 1-239, 2,8-dimethyl-7-(3-(2-methylpyridin-4-yl)-7,8-dihydro-1,6-naphthyridin-6(5H)-yl)-4H-pyrimido[1,2-b] pyridazin-4-one] | 78 | 0.098
4 | Cc1cc(=O)n2nc(N3CCc4ncc(-c5ccncc5)cc4C3)c(C)cc2n1 [Compound 1-240, 2,8-dimethyl-7-(3-(pyridin-4-yl)-7,8-dihydro-1,6-naphthyridin-6(5H)-yl)-4H-pyrimido[1,2-b]pyridazin-4-one] | 86 | 0.284
5 | Cc1cc(=O)n2nc(N3CCc4ncc(-c5ccncc5C)cc4C3)c(C)cc2n1 [Compound 1-241, 2,8-dimethyl-7-(3-(3-methylpyridin-4-yl)-7,8-dihydro-1,6-naphthyridin-6(5H)-yl)-4H-pyrimido[1,2-b] pyridazin-4-one] | 87 | 0.228
6 | Cc1cc(=O)n2nc(N3CCc4ncc(-c5cc(F)nc(F)c5)cc4C3)c(C)cc2n1 [Compound 1-242, 7-(3-(2,6-difluoropyridin-4-yl)-7,8-dihydro-1,6-naphthyridin-6(5H)-yl)-2,8-dimethyl-4H-pyrimido[1,2-b]pyridazin-4-one] | 79 | 0.612
7 | Cc1cc(-c2cnc3c(c2)CN(c2nn4c(=O)cc(C)nc4c(C)c2C)CC3)ccn1 [Compound 1-243, 2,8,9-trimethyl-7-(3-(2-methylpyridin-4-yl)-7,8-dihydro-1,6-naphthyridin-6(5H)-yl)-4H-pyrimido[1,2-b] pyridazin-4-one] | 84 | 0.124
8 | Cc1cc(=O)n2nc(N3CCc4ncc(-c5ccncc5)cc4C3)c(C)c(C)c2n1 [Compound 1-244, 2,8,9-trimethyl-7-(3-(pyridin-4-yl)-7,8-dihydro-1,6-naphthyridin-6(5H)-yl)-4H-pyrimido[1,2-b]pyridazin-4-one] | 82 | 0.112
9 | Cc1cc(=O)n2nc(N3CCc4ncc(-c5ccncc5C)cc4C3)c(C)c(C)c2n1 [Compound 1-245, 2,8,9-trimethyl-7-(3-(3-methylpyridin-4-yl)-7,8-dihydro-1,6-naphthyridin-6(5H)-yl)-4H-pyrimido[1,2-b] pyridazin-4-one] | 87 | 0.072
10 | Cc1cc(=O)n2nc(N3CCc4ncc(-c5cc(F)nc(F)c5)cc4C3)c(C)c(C)c2n1 [Compound 1-246, 7-(3-(2,6-difluoropyridin-4-yl)-7,8-dihydro-1,6-naphthyridin-6(5H)-yl)-2,8,9-trimethyl-4H-pyrimido[1,2-b]pyridazin-4-one] | 80 | 1.02
11 | Cc1cc(=O)n2nc(N3CCc4ncc(-c5ccccc5C(C)C)cc4C3)c(C)c(C)c2n1 [Compound 1-247, 7-(3-(2-isopropylphenyl)-7,8-dihydro-1,6-naphthyridin-6(5H)-yl)-2,8,9-trimethyl-4H-pyrimido[1,2-b]pyridazin-4-one] | 55 | 1.03
12 | Cc1cc(=O)n2nc(N3CCc4ncc(-c5ccccc5C5CC5)cc4C3)c(C)c(C)c2n1 [Compound 1-248, 7-(3-(2-cyclopropylphenyl)-7,8-dihydro-1,6-naphthyridin-6(5H)-yl)-2,8,9-trimethyl-4H-pyrimido[1,2-b]pyridazin-4-one] | 80 | 0.852
13 | CCc1ccccc1-c1cnc2c(c1)CN(c1nn3c(=O)cc(C)nc3c(C)c1C)CC2 [Compound 1-249, 7-(3-(2-ethylphenyl)-7,8-dihydro-1,6-naphthyridin-6(5H)-yl)-2,8,9-trimethyl-4H-pyrimido[1,2-b]pyridazin-4-one] | 87 | 1
14 | COc1ccccc1-c1cnc2c(c1)CN(c1nn3c(=O)cc(C)nc3c(C)c1C)CC2 [Compound 1-250, 7-(3-(2-methoxyphenyl)-7,8-dihydro-1,6-naphthyridin-6(5H)-yl)-2,8,9-trimethyl-4H-pyrimido[1,2-b]pyridazin-4-one] | 79 | 1.01
15 | Cc1cc(=O)n2nc(N3CCc4ncc(-c5ccccc5F)cc4C3)c(C)c(C)c2n1 [Compound 1-251, 7-(3-(2-fluorophenyl)-7,8-dihydro-1,6-naphthyridin-6(5H)-yl)-2,8,9-trimethyl-4H-pyrimido[1,2-b]pyridazin-4-one] | 84 | 0.289
16 | Cc1cc(F)c(F)c(-c2cnc3c(c2)CN(c2nn4c(=O)cc(C)nc4cc2C)CC3)c1 [Compound 1-252, 7-(3-(2,3-difluoro-5-methylphenyl)-7,8-dihydro-1,6-naphthyridin-6(5H)-yl)-2,8-dimethyl-4H-pyrimido[1,2-b]pyridazin-4-one] | 70 | 0.631
17 | Cc1cc(=O)n2nc(N3CCc4ncc(-c5cc(F)cc(F)c5F)cc4C3)c(C)cc2n1 [Compound 1-253, 2,8-dimethyl-7-(3-(2,3,5-trifluorophenyl)-7,8-dihydro-1,6-naphthyridin-6(5H)-yl)-4H-pyrimido[1,2-b] pyridazin-4-one] | 54 | 2.33
18 | Cc1cc(=O)n2nc(N3CCc4ncc(-c5ccccc5OC(F)(F)F)cc4C3)c(C)cc2n1 [Compound 1-254, 2,8-dimethyl-7-(3-(2-(trifluoromethoxy)phenyl)-7,8-dihydro-1,6-naphthyridin-6(5H)-yl)-4H-pyrimido[1,2-b]pyridazin-4-one] | 48 | 1.37
19 | Cc1cc(=O)n2nc(N3CCc4ncc(-c5ccccc5C(F)(F)F)cc4C3)c(C)cc2n1 [Compound 1-255, 2,8-dimethyl-7-(3-(2-(trifluoromethyl)phenyl)-7,8-dihydro-1,6-naphthyridin-6(5H)-yl)-4H-pyrimido[1,2-b] pyridazin-4-one] | 60 | 2.37
20 | Cc1cc(=O)n2nc(N3CCc4ncc(-c5ccccc5Cl)cc4C3)c(C)cc2n1 [Compound 1-256, 7-(3-(2-chlorophenyl)-7,8-dihydro-1,6-naphthyridin-6(5H)-yl)-2,8-dimethyl-4H-pyrimido[1,2-b]pyridazin-4-one] | 71 | 0.578
21 | Cc1cc(=O)n2nc(N3CCc4ncc(-c5ccc(F)cc5F)cc4C3)c(C)cc2n1 [Compound 1-257, 7-(3-(2,4-difluorophenyl)-7,8-dihydro-1,6-naphthyridin-6(5H)-yl)-2,8-dimethyl-4H-pyrimido[1,2-b]pyridazin-4-one] | 76 | 0.339
22 | Cc1cc(=O)n2nc(N3CCc4ncc(-c5cc(F)ncc5F)cc4C3)c(C)cc2n1 [Compound 1-258, 7-(3-(2,5-difluoropyridin-4-yl)-7,8-dihydro-1,6-naphthyridin-6(5H)-yl)-2,8-dimethyl-4H-pyrimido[1,2-b]pyridazin-4-one] | 67 | 0.363
23 | COc1cnccc1-c1cnc2c(c1)CN(c1nn3c(=O)cc(C)nc3cc1C)CC2 [Compound 1-259, 7-(3-(3-methoxypyridin-4-yl)-7,8-1,6-naphthyridin-6(5H)-yl)-2,8-dimethyl-4H-pyrimido[1,2-b]pyridazin-4-one] | 72 | 0.445
24 | Cc1cc(=O)n2nc(N3CCc4ncc(-c5cnccn5)cc4C3)c(C)cc2n1 [Compound 1-260, 2,8-dimethyl-7-(3-(pyrazin-2-yl)-7,8-dihydro-1,6-naphthyridin-6(5H)-yl)-4H-pyrimido[1,2-b]pyridazin-4-one] | 83 | 0.097
25 | COCc1cc(=O)n2nc(N3CCc4ncc(-c5cnccn5)cc4C3)c(C)c(C)c2n1 [Compound 1-261, 2-(methoxymethyl)-8,9-dimethyl-7-(3-(pyrazin-2-yl)-7,8-dihydro-1,6-naphthyridin-6(5H)-yl)-4H-pyrimido[1,2-b]pyridazin-4-one] | 94 | 0.02
26 | COCc1cc(=O)n2nc(N3CCc4ncc(-c5cnc(OC)cc5C)cc4C3)c(C)c(C)c2n1 [Compound 1-262, 7-(3-(6-methoxy-4-methylpyridin-3-yl)-7,8-dihydro-1,6-naphthyridin-6(5H)-yl)-2-(methoxymethyl)-8,9-dimethyl-4H-pyrimido[1,2-b]pyridazin-4-one] | 99 | 1.75
27 | COCc1cc(=O)n2nc(N3CCc4ncc(-c5cnn(C6CC6)c5)cc4C3)c(C)c(C)c2n1 [Compound 1-263, 7-(3-(1-cyclopropyl-1H-pyrazol-4-yl)-7,8-dihydro-1,6-naphthyridin-6(5H)-yl)-2-(methoxymethyl)-8,9-dimethyl-4H-pyrimido[1,2-b]pyridazin-4-one] | 86 | 0.096
